In the NIST ThermoML archive (doi:10.1016/j.fluid.2013.05.013):
Numbers after ± are expanded uncertainties.

Conditions: 101.33 kPa, Liquid; for viscosity: Concentric cylinders viscometry; for mass density: Vibrating tube method

Row | SMILES | viscosity (288.15 K) [mPa·s] | mass density (288.15 K) [kg/m3] | viscosity (298.15 K) [mPa·s] | mass density (298.15 K) [kg/m3] | viscosity (308.15 K) [mPa·s] | mass density (308.15 K) [kg/m3] | viscosity (318.15 K) [mPa·s] | mass density (318.15 K) [kg/m3]
1 | CCn1cc[n+](C)c1.O=S(=O)([N-]S(=O)(=O)C(F)(F)F)C(F)(F)F | 47.97 ± 0.29 | 1528.51 ± 0.7 | 32.51 ± 0.2 | 1518.38 ± 0.69 | 23.34 ± 0.14 | 1508.33 ± 0.68 | 17.46 ± 0.11 | 1498.36 ± 0.67
2 | CCn1cc[n+](C)c1.O=S(=O)([O-])C(F)(F)F [1-ethyl-3-methylimidazolium trifluoromethanesulfonate] | 67.66 ± 0.45 | 1392.47 ± 0.57 | 45.12 ± 0.28 | 1384.05 ± 0.56 | 31.89 ± 0.2 | 1375.68 ± 0.56 | 23.4 ± 0.14 | 1367.37 ± 0.55
